Read-outs that look alike come from different tables or passages of the source.
Tests used:
[1] = tested on: human respiratory syncytial virus (rgRSV30); experiment: RSV plaque assay after 30 min exposure to 160 ppm gNO; format: cell-based; conditions: single 30 min exposure to 160 ppm gNO; starting 500 PFU
Procedure: The efficacy of treating viral infection by respiratory syncytial virus by the methods presented herein was tested by exposure for 30 minutes of human respiratory syncytial virus (rgRSV30) to a gas mixture containing 160 ppm nitric oxide, using standard plaque assay as described hereinabove.
FIGS. 3A-D present the data obtained in the experiment using tissue culture samples harboring human rgRSV30, coupled to a green fluorescent protein, wherein the control experiment the samples were exposed to a ambient air (data not shown), and the tested samples having a starting viral level of 2000 PFU (FIG. 3A), 1000 PFU (FIG. 3B) and 500 PFU (FIG. 3C), were exposed to 160 ppm gNO for 30 minutes, whereas FIG. 3D presents a comparative bar plot comparing the control to test results.

[2] = tested on: TNF, IL-6, IL-8, IL-10, IL-1b and IL-12p70; experiment: Phase I safety study: plasma cytokines by cytometric bead array; format: in vivo, human; conditions: vs baseline, all sampling time points
Source text: Hematological assessment included a complete blood count and differentials (hemoglobin, hematocrit, red blood cell count, white blood cell count, white blood cell differential, and platelet count) were obtained in order to monitor blood chemistry, hematology and inflammation measurements. The blood chemistry profile included serum creatinine, and liver function tests such as aspartate aminotransferase (AST) serum glutamic oxaloacetic transaminase (SGOT), alkaline phosphatase, and gamma-glutamyl transferase (GGT). The effect of gNO on coagulation was determined by the prothrombin time (PT) and its derived measures of prothrombin ratio (PR) and international normalized ratio (INR). Heparinized plasma was collected at baseline and on days 1, 2, 4, and 5 of gNO administration, and on follow-up days 3, 7 and 21 and frozen at −80° C. Plasma cytokine levels were assessed using the human inflammation cytokine bead array kit (BD Bioscience, Canada). Plasma levels of angiopoietin Ang-1 and Ang-2 were determined by ELISA (R&D Systems, USA).
To assess whether gNO inhalation may cause inflammation or endothelial activation cytokines and the vascular endothelium activation factors Ang-1 and Ang-2 were quantified in peripheral plasma at baseline at various time points thereafter. […]

Serracia sp. = conditions: 200 ppm gNO; saline; cited from earlier work
S. aureus (Clinical) = conditions: 200 ppm gNO; saline; cited from earlier work
Klebsiella sp. #3 = conditions: 200 ppm gNO; saline; cited from earlier work
Acinetobacter sp. = conditions: 200 ppm gNO; saline; cited from earlier work
Group B Streptococci = conditions: 200 ppm gNO; saline; cited from earlier work
[3] = cited from earlier work; for mortality: 6 h/day, groups of 10 rats
broad range of microbes = conditions: gNO at 160-200 ppm; in vitro, ex vivo and in animal models; cited from earlier work
[4] = tested on: bovine respiratory disease; conditions: intermittent gNO; cited from earlier work

SMILES: [N]=O [gNO, nitric oxide]
- viral viability [1]: substantially nullified
- plasma cytokine levels [2]: unaffected
- LD100 (Serracia sp.): 6 h
- Latent Period (Serracia sp.): 4 h
- −2.5 Log10 (Serracia sp.): 4.9 hours
- LD100 (S. aureus (Clinical)): 4 h
- Latent Period (S. aureus (Clinical)): 3 h
- −2.5 Log10 (S. aureus (Clinical)): 3.7 hours
- LD100 (Klebsiella sp. #3): 6 h
- Latent Period (Klebsiella sp. #3): 3 h
- −2.5 Log10 (Klebsiella sp. #3): 5.1 hours
- LD100 (Acinetobacter sp.): 6 h
- Latent Period (Acinetobacter sp.): 4 h
- −2.5 Log10 (Acinetobacter sp.): 5 hours
- LD100 (Group B Streptococci): 2 h
- Latent Period (Group B Streptococci): 1 h
- −2.5 Log10 (Group B Streptococci): 1.5 hours
- animals that died during the first 1-2 days ([3]; 300 ppm gNO, group of 10 rats): Six
- mortality ([3]; 400 ppm gNO): all of the animals died on the first day
- mortality ([3]; 500 ppm gNO): all of the animals died on the first day
- MetHb level ([3]; 500 ppm gNO): 67 percents
- antimicrobial effects (broad range of microbes): potent antimicrobial effects
- clinical symptoms of bovine respiratory disease [4]: decrease the clinical symptoms

Reference: US20150174158A1, “[…] NITRIC OXIDE FOR TREATING RESPIRATORY DISEASES” (Advanced Inhalation Therapies (AIT) Ltd., priority 2012, published 2015)
